The text below walks through data of US12491452B2, “Extraction method and composition obtained therefrom” (NATURALIA INGREDIENTS S.R.L., priority 2018, dated 2025).

Read-outs that look alike come from different tables or passages of the source.

The conditions of data set [1]: cited from earlier work.
A short description of data set [2]: Stability of CBDA and CBD in inclusion complexes of Eletta Campana CS inflorescence and HP-β-CD in water, HPLC-UV. Format: physicochemical. The note with it: for cannabinoid concentration: HP-β-CD aqueous extract. Here is the method: The official method reported in the German Pharmacopoeia of Cannabis Flos (https://www.MonographCannabisFlos.pdf) comprises three extraction and filtering cycles of 500 mg of inflorescence with 20, 12.5 and 12.5 mL of ethanol 96% respectively. The ethanol liquid phase was brought to a volume of 50 mL in a volumetric flask with clean 96% ethanol. Said extract was filtered on a regenerated cellulose filter with pore diameter 0.45 μm. A 1 mL portion was diluted with 9 mL of 96% ethanol for chromatographic analysis. For each cannabinoid a calibration curve was constructed for the quantification thereof within the extracts and in the aqueous formulations of the inclusion complexes with the inflorescence. The calibration curve was constructed with certified standards (Cerilliant Cannabinoid Reference Standards, Cerilliant Corporation, Texas, USA) in a concentration range of 0.25-1.00 μg/mL. The titrations were performed following the method published by Citti et al. [Citti et al., Journal of Pharmaceutical and Biomedical Analysis 2016, 128, 201-209] with the use of high-performance liquid chromatography coupled with a UV detector (HPLC-UV).
After filtering, both the solutions were then transferred to an amber-colored closed container. One container was kept at ambient temperature (25° C.) in the dark and the other in the refrigerator at 8° C. The concentration of the cannabinoids, in the particular example of CBDA and CBD, was measured at different times to verify the stability thereof, analyzing a portion by HPLC-UV. […] The percentage CBDA concentration difference with reference to time 0 is indicated in brackets.

The conditions of data set [3]: cited from earlier work. The source holds these as a separate data set.

Take 2-Hydroxypropyl-γ-cyclodextrin: the “Solubility in pure water (mg/ml) at approx. 25° C.” value (shortened to “Solubility in pure water (mg/ml)”) in data set [1] was greater than 500 mg/mL.
2-hydroxypropyl-β-cyclodextrin: the “Solubility in pure water (mg/ml)” value in data set [1] is greater than 600 mg/mL.
As for `C=C(C)[C@@H]1CCC(C)=C[C@H]1c1c(O)cc(CCCCC)cc1O` [CBD, 2-[(1R,6R)-3-methyl-6-(prop-1-en-2-yl)cyclohex-2-enyl]-5-pentylbenzene-1,3-diol, reference compound], the cannabinoid concentration in data set [2] (8° C., 0 days) came out at 0.16 µg/mL; in data set [2] (8° C., 14 days) it was 0.12 µg/mL; in data set [2] (8° C., 45 days), 0.17 µg/mL; in data set [2] (8° C., 60 days) it was 0.14 µg/mL; in data set [2] (8° C., 100 days), 0.17 µg/mL; in data set [2] (25° C. in the dark, 0 days) it was 0.14 µg/mL. For the same compound, the cannabinoid concentration in data set [2] (25° C. in the dark, 14 days) turned out to be 0.56 µg/mL; in data set [2] (25° C. in the dark, 45 days), 0.78 µg/mL; in data set [2] (25° C. in the dark, 60 days), 1.10 µg/mL; in data set [2] (25° C. in the dark, 100 days) it was 2.93 µg/mL. Moreover, in data set [2] (formulation kept at 8° C., 100 days), the “stability of the formulation (in words)” value was “remain surprisingly stable”. Also, the “drop of concentration in water” value in data set [3] (infusion without CD, 25° C., period of 7 days) is 60%; in data set [3] (tisane without CD kept at 4° C., 7 days), 50%.
With `C=C(C)[C@@H]1CCC(C)=C[C@H]1c1c(O)cc(CCCCC)c(C(=O)O)c1O` [CBDA, 2,4-Dihydroxy-3-[(1R,6R)-3-methyl-6-(1-methylethenyl)-2-cyclohexen-1-yl]-6-pentylbenzoic acid], the “stability of the formulation (in words)” value in data set [2] is recorded as “loss (albeit very slow”. Also, the “percentage CBDA concentration difference with reference to time 0” value was “+1.8%” in data set [2] (8° C., 14 days); “+1.4%” in data set [2] (8° C., 45 days); “+0.6%” in data set [2] (8° C., 60 days); “+1.4%” in data set [2] (8° C., 100 days); −9.9% in data set [2] (25° C., 14 days); −30.7% in data set [2] (25° C., 45 days). Further, the “percentage CBDA concentration difference with reference to time 0” value is given as −47.6% in data set [2] (25° C., 60 days) and −50.1% in data set [2] (25° C., 100 days). For the same compound, the cannabinoid concentration in data set [2] (8° C., 0 days) was 6.81 µg/mL; in data set [2] (8° C., 14 days) it was 6.94 µg/mL; in data set [2] (8° C., 45 days), 6.91 µg/mL; in data set [2] (8° C., 60 days) it was 6.86 µg/mL; in data set [2] (8° C., 100 days), 6.91 µg/mL; in data set [2] (25° C. in the dark, 0 days) it was 6.45 µg/mL. The cannabinoid concentration in data set [2] (25° C. in the dark, 14 days) turned out to be 5.81 µg/mL; in data set [2] (25° C. in the dark, 45 days) it was 4.47 µg/mL; in data set [2] (25° C. in the dark, 60 days) it was 3.38 µg/mL; in data set [2] (25° C. in the dark, 100 days), 3.21 µg/mL. Also, in data set [3] (infusion without CD, both at 25° C. and at 4° C.), the “time beyond which stability in water is not guaranteed” value is given as no more than 14 days.
Consider Randomly methylated β-Cyclodextrin, for which, in data set [1], the “Solubility in pure water (mg/ml)” value is greater than 500 mg/mL.
As for Sodium salt of β-CD sulfobutyl ether, in data set [1], the “Solubility in pure water (mg/ml)” value is greater than 500 mg/mL.
